Results as given in patent US20180235870A1, “TRANSDERMAL FORMULATIONS FOR DELIVERY OF BERBERINE COMPOUNDS, AND THEIR USE IN THE TREATMENT OF BERBERINE-RESPONSIVE DISEASES AND CONDITIONS” (DELIVRA INC., priority 2015, published 2018).

Legend:
[1] = system: male Zucker rat, a model of type-2 diabetes and metabolic disorder; experiment: Effect of berberine, metformin and simvastatin on body mass, lipid biomarkers, food and water intake, clinical chemistry (Example 18); assay type: in vivo, obese male Zucker fa/fa rats; conditions: Zucker rats, Days 0 to 28
Experimental: All in vivo animal husbandry, treatment regiments, and sample collections were completed by InterVivo. The study was completed using obese male Zucker fa/fa rats (Charles River) at 10 weeks of age. […] Shaving was performed under anaesthesia one day prior to initiation of test article administration. The area was further shaven, as needed, over the course of the dosing period to ensure accurate drug application and absorption. For dosing procedures, animals were restrained and the transdermal test articles applied in a uniform layer over the entire shaved area. The shaved administration area was cleaned daily with paper towel before the subsequent transdermal dose was administered. Animals receiving test articles via oral gavage were restrained, and a ball-tipped gavage needle (18G) attached to a syringe containing the dosing solution was first inserted into the mouth, and then into the stomach. To determine the appropriate depth of insertion of the needle, the position corresponding to the last rib was measured prior to insertion. […] Group A), oral administration of berberine (180 mg/kg/dose; […] Group C), and oral administration of the vehicle (Group D) (Table 19). […] Group F), or with orally-administered metformin (200 mg/kg/dose; Group G). […] On Day 28, the animals were dosed in the morning only, prior to euthanasia and tissue collection. Animal body weights were performed once weekly from Day −34 to −2 and daily from Day −1 to 28. Rats were weighed, and the scales were operated and maintained, according to standard operating procedures. Food and water consumption measurements were taken over a 24 hour period, once weekly, from Days 0 to 28. Blood was collected via tail nick on Day-1 to determine unfasted blood glucose level for group allocation. Whole blood was collected via the saphenous vein or other appropriate route on Days 0, 7, 14, 21 and 28 immediately prior to test article administration. […] On Day 28, subjects were anaesthetized with isoflurane, and whole blood was collected via cardiac puncture 2.5 hours (+/−5 minutes) following treatment administration on this day. […]

[2] = system: male Zucker fa/fa rat, a model of type 2 diabetes and metabolic disorder; experiment: Efficacy of transdermal berberine alone and in combination with pharmaceuticals in a model of metabolic syndrome (Example 19); assay type: in vivo, obese male Zucker fa/fa rats; conditions: Zucker fa/fa rats
Experimental: Fourteen obese male Zucker fa/fa rats at 5 weeks of age were housed for five weeks to the age of 10 weeks. During these five weeks, body weight measurements were taken once a week and once daily health observations were conducted for all animals. […] On Day 28, serum and whole liver was collected. […] Food and water intake measurements were taken once a week during the study period of Day 0 to Day 28. […] A sufficient amount of test article was supplied and formulated. Test article product was administered at a dose of 3.6 g/kg twice a day (e.g. […] Berberine cream was weighed fresh daily at each AM and PM dosing to avoid desiccation of the test article. Daily PO and TD dosing of the test articles took place between the hours of 08:00 to 10:00 and 16:00 to 18:00 for 7 days a week between Day 0 to 27. […] The exact time of dosing (up to the minute) was recorded for each animal on the daily dosing sheets. […] Remaining dosing solutions were stored at 4° C. between dosing periods. […] The animals shaved underwemt gaseous anaesthetic according to SOP ROD28.01 to ensure accuracy and avoid undue stress of the animal. The area was further shaven as needed over the course of the dosing period to ensure accurate drug application and absorption. At dosing, the animals were restrained and the transdermal test articles were applied in a uniform layer over the entire shaved area. […] PTS3028).

[3] = averaged over the entire experiment

COc1ccc2cc3[n+](cc2c1OC)CCc1cc2c(cc1-3)OCO2 [berberine, Berberine]
cholesterol and triglyceride blood counts (in words) [1]: reduced cholesterol and triglyceride blood counts | glucose levels (in words) ([1]; non-fasting): largest reduction in glucose levels | rate of weight gain (grams/day) ([2]; BID, Day 0 to 28, n=2): 3.3 grams/day | overall triglyceride levels (mmol/L+/−SEM) ([2]; averaged for the entire experiment): 9.5 ± 1.0 mmol/L | overall HbA1c level change (mmol/mmol+/−SEM) [2, 3]: 31.3+/−0.7 mmol/mmol | overall average food intake (grams+/−SEM) [2, 3]: 30.8+/−1.5 grams | overall cholesterol level change (mmol/L+/−SEM) [2, 3]: 5.0 ± 0.3 mmol/L | overall average glucose change (%+/−SEM) ([2]; non-fasting glucose, averaged over the entire experiment): −24.0+/−0.6%
